Experimental data as given in patent US8828474B2, “Apparatus and methods for loading a drug eluting medical device” (Medtronic Vascular, Inc., priority 2009, dated 2014).

Assay: Solubility of sirolimus in solvents / dispersion media
Assay type: physicochemical
Method: Solution 524 is a homogeneous mixture in which therapeutic substance 112 dissolves within a solvent or a solvent mixture. In one embodiment, solution 524 includes a high-capacity solvent 528 which is an organic solvent that has a high capacity to dissolve therapeutic substance 112. High capacity as utilized herein is defined as an ability to dissolve therapeutic substance 112 at concentrations greater than 500 mg of substance per milliliter of solvent. Examples of high capacity drug dissolving solvents for sirolimus and similar substances include but are not limited to tetrahydrofuran (THF), di-chloromethane (DCM), chloroform, and di-methyl-sulfoxide (DMSO). In addition to the high-capacity solvent, solution 524 may include an excipient 526 in order to assist in drug elution. In one embodiment, excipient 526 may be a surfactant such as but not limited to sorbitan fatty acid esters such as sorbitan monooleate and sorbitan monolaurate, polysorbates such as polysorbate 20, polysorbate 60, and polysorbate 80, cyclodextrins such as 2-hydroxypropyl-beta-cyclodextrin and 2,6-di-O-methyl-beta-cyclodextrin, sodium dodecyl sulfate, octyl glucoside, and low molecular weight poly(ethylene glycol)s. In another embodiment, excipient 526 may be a hydrophilic agent such as but not limited to salts such as sodium chloride and other materials such as urea, citric acid, and ascorbic acid. […]

In the case of `CO[C@H]1C[C@@H]2CC[C@@H](C)[C@@](O)(O2)C(=O)C(=O)N2CCCC[C@H]2C(=O)O[C@H]([C@H](C)C[C@@H]2CC[C@@H](O)[C@H](OC)C2)CC(=O)[C@H](C)/C=C(\C)[C@@H](O)[C@@H](OC)C(=O)[C@H](C)C[C@H](C)/C=C/C=C/C=C/1C` [sirolimus], the solubility in hexane is reported as “insoluble”.
